Read-outs that look alike come from different tables or passages of the source.
Target: Benzodiazepine receptors (BDZ-Rs)
Assay: Inhibition of 3H-flunitrazepam (3H-FNZ) binding to washed rat cerebral cortical membranes
Experimental: Adult male Wistar rats weighing 250g were used for biochemical experiments.
Membrane preparations were carried out according to Medina et al. (1990). Briefly, brains were rapidly dissected out on ice and the different structures were homogenized in 10 volumes of 0.32 M sucrose and centrifuged at 900 x g for 10 min. The resulting supernatant was centrifuged at 100,000 x g for 30 min and the pellet washed twice in 25mM Tris HCl buffer pH 7.4 at 100,000 x g for 30 min,and stored at-20°C until used.
Binding affinities to BDZ-Rs were determined by the ability of the compounds to inhibit Hoffman-La Roche ^3H-flunitrazepam (^3H-FNZ) binding to extensively washed rat cerebal cortical membranes following the method as described by Levi de Stein, M. et al., Mol. Brain Res (1989),5, pp 9-15.
In brief, for each assay, triplicate samples of the membranes, containing 0.2 to 0.4 mg protein were suspended in a final volume of 1 ml of 0.25 mM Tris-HCl buffer, pH 7.3.
The incubation was carried out at 4°C for 60 min with 0.5 nM ^3H-FNZ. To study the binding saturation, a range of 0.3 to 10 nM ^3H-FNZ was used. Non-specific binding was determined in parallel incubations in the presence of 3µM FNZ, and represented 5-15% of total. The assays were terminated by filtration under vacuum through Whatman GF/A glass-fiber filters, and three washes with 3mL each of incubation medium. Filters were dried and counted after the addition of 5 mL of 2,5-diphenyloxazole/xylene as scintillation fluid.
The competition curves were analyzed using Graph-Pad Prism software.
Figures 1-5 show representative displacement curves of [^3H] flunitrazepam (0.5 nM) binding by different flavones to washed crude synaptosomal membranes from rat cerebral cortex.

[1] = Rat Cerebral Cortex membranes, 0.5 nM 3H-FNZ, means of 3-5 independent determinations, read-out: Ki^b
[2] = mean ± SEM from displacement curves of [3H] flunitrazepam binding to rat synaptosomal membranes, read-out: Ki
[3] = single representative displacement curve (Figures 1-5), [3H] flunitrazepam 0.5 nM, washed crude synaptosomal membranes from rat cerebral cortex, read-out: Ki

Structure (SMILES)	Ki [1] [nM]	Ki [2] [nM]	Ki [3] [nM]
O=c1cc(-c2ccccc2)oc2ccc([N+](=O)[O-])cc12 [Compound A1, 6-nitroflavone]	275	275 ± 41.1	315
O=c1cc(-c2cccc(Cl)c2)oc2ccccc12 [Compound A2, 3'-chloroflavone]	614	614 ± 32.7	665
O=c1cc(-c2cccc(Br)c2)oc2ccccc12 [Compound A3, 3'-bromoflavone]	413	414 ± 46	427
O=c1cc(-c2cccc(Br)c2)oc2ccc(Br)cc12 [Compound A4, 6,3'-dibromoflavone]	19	18.6 ± 2.18	22.7
O=c1cc(-c2cccc(Br)c2)oc2ccc([N+](=O)[O-])cc12 [Compound A5, 6-nitro-3'-bromoflavone]	25	25.2 ± 2.46	21.8
O=c1cc(-c2ccccc2)oc2ccccc12 [Flavone 6, Flavone, reference compound]	1000		
